{
  "source": "patent US20050042280A1",
  "about": "“Aqueous based pharmaceutical formulations of water-soluble prodrugs of propofol” (priority 2001, published 2005)",
  "origin": "cited, not measured here",
  "details": "anesthetic induction doses, Bryson et al., Drugs 50 (1995) at 520",
  "data": [
    {"molecule": "CC(C)c1cccc(C(C)C)c1O", "note": "[propofol, 2,6-diisopropylphenol]", "values": [
      {"measurement": "patients with respiratory consequences, including a reduction in tidal volume and apnea", "result": "up to 83%"}
    ]}
  ]
}
